From ChEMBL document CHEMBL1122462, “Potential antiatherosclerotic agents. 4. [(Functionalized-alkyl)amino]benzoic acid analogues of cetaben” (1983)

How the values were obtained:
Rattus norvegicus [1] = experiment: In vivo sterol lowering activity at dose of 0.10 % of the diet; type: functional
[2] = target: T1, Sterol O-acyltransferase 1 (Rattus norvegicus) (UniProt O70536); experiment: In vitro inhibitory activity against acyl coenzyme A:cholesterol acyltransferase; parameters: concentration or dose not given beside the values; settings: concentration not given here
T1 sequence (whole entry): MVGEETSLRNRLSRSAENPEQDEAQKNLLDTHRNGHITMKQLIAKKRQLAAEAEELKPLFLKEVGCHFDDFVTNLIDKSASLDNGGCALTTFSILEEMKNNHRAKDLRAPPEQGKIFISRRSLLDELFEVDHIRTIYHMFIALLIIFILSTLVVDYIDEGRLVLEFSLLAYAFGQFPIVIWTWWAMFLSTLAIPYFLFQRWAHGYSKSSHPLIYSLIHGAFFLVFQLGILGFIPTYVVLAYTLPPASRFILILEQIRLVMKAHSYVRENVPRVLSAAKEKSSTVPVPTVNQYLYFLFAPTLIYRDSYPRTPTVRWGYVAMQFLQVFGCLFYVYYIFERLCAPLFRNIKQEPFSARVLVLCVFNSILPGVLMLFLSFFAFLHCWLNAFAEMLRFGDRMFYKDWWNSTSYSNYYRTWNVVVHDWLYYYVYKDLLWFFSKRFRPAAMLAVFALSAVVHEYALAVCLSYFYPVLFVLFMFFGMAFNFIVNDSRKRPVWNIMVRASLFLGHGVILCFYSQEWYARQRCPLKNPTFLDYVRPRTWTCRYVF

Rattus norvegicus [3] = experiment: In vivo Sterol lowering activity at dose as 0.01% of the diet; type: functional
Rattus norvegicus [4] = experiment: In vivo Triglyceride lowering activity at a dose of 0.10 % of the diet; type: functional
Rattus norvegicus [5] = experiment: In vivo Triglyceride lowering activity at dose as 0.03 % of the diet; type: functional
Rattus norvegicus [6] = experiment: In vivo sterol lowering activity, dosed as 0.03 % of the diet; type: functional
Rattus norvegicus [7] = experiment: In vivo Triglyceride lowering activity at dose as 0.01 % of the diet; type: functional
Rattus norvegicus [8] = experiment: In vivo Triglyceride lowering activity at dose as 0.10 % of the diet.; type: functional
Rattus norvegicus [9] = experiment: In vivo Sterol lowering activity at dose as 0.10 % of the diet.; type: functional

Structure (SMILES) | serum sterol level, % of control (Rattus norvegicus [1]) | inhibition [2] | serum sterol level, percent of control (Rattus norvegicus [3]) | serum triglyceride level (% of control) (Rattus norvegicus [4]) | triglyceride lowering activity (Rattus norvegicus [5]) | serum sterol level, percent of control (Rattus norvegicus [6]) | serum triglyceride level (% of control) (Rattus norvegicus [7]) | Diet (Rattus norvegicus [8]) | Diet (Rattus norvegicus [9])
CC(C)(C)CCCCCCCCCCCCNc1ccc(C(=O)O)cc1 | <75% | < 59% | 94% | <26% | <53% | <77% | <75% |  | 
CCOC(=O)c1ccc(NCCCCCCCCCCCBr)cc1 | 101% | < 61% | 108% | 74% | 83% | 94% | 83% |  | 
CCCCCC(=O)CCCCCCCCCCNc1ccc(C(=O)OCC)cc1 | 89% | < 44% | 99% | <42% | <58% | 100% | <64% |  | 
O=C(O)c1ccc(NCCCCCCCCCCCSCc2ccccc2)cc1 | 90% | < 54% | 99% | <51% | <52% | 95% | <55% |  | 
CCOC(=O)c1ccc(NC(=O)CCCCCCCCCCCCCCCBr)cc1 | <86% | < 32% | 96% | 79% | 94% | 93% | 84% |  | 
CCOC(=O)c1ccc(NCC(F)(F)C(F)(F)C(F)(F)C(F)(F)C(F)(F)C(F)(F)C(F)(F)F)cc1 | <44% | 7% | <81% | <35% | <43% | <65% | <47% |  | 
CCCCCCCCCCCCCCC(C)Nc1ccc(C(=O)O)cc1 (configuration not stated) | <79% | < 51% | 114% | <49% | 68% | 95% | 79% |  | 
O=C(O)c1ccc(NCCCCCCCCCCCNc2ccc(C(=O)O)cc2)cc1 | 87% | < 30% | 99% | 84% | 85% | 94% | <68% |  | 
CCSCCCCCCCCCCCCCCCCNc1ccc(C(=O)O)cc1 | 88% | < 36% | 91% | <59% | <58% | 91% | 62% |  | 
CCOC(=O)c1ccc(N2CCCC2=O)cc1 | 84% | 6% |  |  |  |  |  | 72% | 
CCCCCCCCCCC(C#N)CCCCCNc1ccc(C(=O)O)cc1 (configuration not stated) | 83% | < 64% | 96% | <50% | <66% | <85% | 75% |  | 
O=C(O)c1ccc(NCCCCCCCCCCCS)cc1 | <84% | < 26% | 92% | <50% | <61% | 89% | <65% |  | 
O=C(O)c1ccc(NCCCCCCCCCCCBr)cc1 | 100% | 8% | 99% | <55% | <65% | <86% | 78% |  | 
CCOC(=O)c1ccc(NCCC2CCCC2)cc1 |  | 60% |  | 69% |  |  |  |  | 96%
CCOC(=O)c1ccc(NCCCCCCCCCCCCCCCCBr)cc1 | 93% | 10% | 99% | 100% | 84% | 98% | 100% |  | 
